Test results from US20100215588A1, “THERAPEUTIC DELIVERY OF INHIBITORY NUCLEIC ACID MOLECULES TO THE RESPIRATORY SYSTEM” (priority 2007, published 2010).

How the values were obtained:
Type in all cases: in vivo, cynomolgus monkeys
[1] = I5NP siRNA concentration and non-compartmental pharmacokinetics in plasma after single oronasal inhalation (hybridisation assay); details: for tmax: Treatment 1 (I5NP only), single oronasal inhalation; for AUC0-inf / AUC0-tlast / Cmax / Extrapolation (AUC0-inf − AUC0-tlast)/AUC0-inf × 100 / kel / t1/2 / tlast: Treatment 1, single oronasal inhalation
Experimental: (§1) Male cynomolgus monkeys were administered single oronasal inhalation doses of a nebulised aerosol formulation of fluorescent-labelled REDD14Cy3.5 and/or I5NP siRNAs. Following dosing, the concentration of I5NP in plasma, the non-compartmental disposition kinetics of I5NP in plasma, the qualitative distribution of REDD14Cy3.5 in lungs and the semi-quantitative distribution of I5NP in lungs were determined.
Three separate dose treatments were administered to the animals as detailed below. The theoretical inhalation achieved doses of siRNA were calculated from the respiratory minute volume (measured during pre-treatment), the aerosol concentration of the test article (measured gravimetrically during pre-treatment calibration of the nebuliser), the treatment time, the total aerosol depostion fraction (assumed as 100%) and the animal bodyweights on the day before each dose administration.
(§2) On Day 1 of the study, four of the available monkeys (101 to 104) were administered a target dose of 35 mg/kg of I5NP siRNA via an oronasal mask as a nebulized aerosol generated by the Aeroneb device. A 2.0 L/min dilution airflow was used. The total dose administered was calculated, based on the bodyweights and measured respiratory minute volumes of the animals, and on the achieved output of the Aeroneb device using the formulation concentration of 40 mg/mL. The administered dose was adjusted by changing the exposure times for the animals. Animals received treatment sequentially, rather than in parallel, using the single calibrated test Aeroneb.
as §2, with “35” for “1”, “Study,” for “study, four of”, “three remaining main study animals (103” for “available monkeys (101”, “105)” for “104)”, “animals.” for “animals. Animals received treatment sequentially, rather than in parallel, using the single calibrated test Aeroneb.”
A blood sample (0.5 mL) was collected at pre-dose, and at 15 minutes, 30 minutes, 1, 2, 4, 6, 8 and 24 hours post-end of inhalation, from the left or right femoral vein of each animal that received the full dose (101, 102, 103 and 106). Blood was collected into tubes with K3EDTA as the anticoagulant and then placed on wet ice pending centrifugation.
A blood sample (0.5 mL) was collected at pre-dose and at 15 minutes post-end of inhalation from all animals (103, 104 and 105). A third blood sample was collected at 6 h (animal 103), 24 h (animal 104) or 72 h (animal 105) post-end of inhalation. Blood was collected, into K3EDTA tubes, from the left or right femoral vein of each animal (103 to 105), and placed on wet ice pending centrifugation.
Blood was kept on wet ice until it was centrifuged, at 4° C. and 2700 rpm for approximately 10 minutes, to separate plasma (within 1 hour of collection). Plasma samples were separated, transferred to appropriately labeled vials and placed on dry ice prior to storage at approximately −80° C.
Following Treatments 1 and 3, plasma samples were analyzed for I5NP siRNA concentration at PCS-MTL according to a validated hybridization method.
Non-compartmental disposition kinetics in plasma was performed on concentration data from individual animals following Treatment 1. The following parameters were estimated as applicable:
All pharmacokinetic parameters were estimated using WinNonlin version 3.2 computer software.

[2] = Qualitative distribution of REDD14Cy3.5 siRNA in lung and kidney (fluorescence analysis); details: after oronasal inhalation
Experimental: On Day 15 of the study, two of the available animals (101 and 102) were administered a target dose of 35 mg/kg of a mixture of I5NP and REDD14Cy3.5 (fluorescence-labelled) siRNA via an oronasal mask as a nebulized aerosol generated by the Aeroneb device. A 2.0 L/min dilution airflow was used. The total dose of siRNA administered was calculated, based on the bodyweights and measured respiratory minute volumes of the animals, and on the achieved output of the Aeroneb device using the formulation concentration of 40 mg/mL of siRNA. The administered dose was adjusted by changing the exposure times for the animals
At the time of necropsy following Treatment 2, the lungs, bronchi and trachea of animal 102 were removed from the animal. The lungs were perfused with 4% paraformaldehyde, introduced using a syringe, via the trachea and/or bronchus and stored in this fixative at ambient temperature for a period of approximately 21 hours. Following this, as much as possible of the original fixative fluid was withdrawn by syringe via the trachea/bronchus and replaced with 0.2% paraformaldehyde. The fixed lungs were analyzed for fluorescence distribution.
At the time of necropsy following Treatment 2, the right kidney of animal 102 was removed from the animal. The kidney was dissected into quarters by making one longitudinal and one transverse cut, each to pass through the hilus, and then immersed in 4% paraformaldehyde and refrigerated for approximately 21 hours. Following this, the fixing solution was changed to 0.2% paraformaldehyde and the kidney was analyzed for fluorescence distribution.
Following Treatment 2, lung and kidney samples from animal 102 were analyzed for distribution of fluorescence (from REDD14Cy3.5 siRNA). The results were considered to be qualitative.

[3] = Clinical observations after inhalation doses of siRNA
Experimental: as §1
Animals were treated with test aerosols using a pediatric anesthetic-type oronasal face mask fitted with inlet and outlet tubes and a breathing loop. During treatment, animals were placed in a restraint sling. The test atmospheres were generated using an Aeroneb (Aerogen) nebulizer, and assessed for output as described below. The level of exposure to the test article was achieved by varying the duration of exposure.
as §2, with “Animals received treatment sequentially, rather than in parallel, using the single calibrated test Aeroneb.” left out

[4] = Treatment 1, 8 hours post-end of dose
[5] = plasma, Treatment 1, mean of 4 animals

## I5NP: exemplary p53 inhibiting siRNA; sense GAGAAUAUUUCACCCUUCA, antisense UGAAGGGUGAAAUAUUCUC (chemistry not given here)
[1]; Treatment 1, 15 minutes post-end of dosing, mean of 4 animals
  highest mean concentration in plasma: 21.0 ± 5.01 ng/mL
[1]; [4]
  mean plasma level: 0.588 ± 0.561 ng/mL
  plasma level as % of the Cmax value: approximately 3%
[1]; Treatment 1, 24 h post-end of dosing, animal 101
  plasma concentration: 0.205 ng/mL
[1]; Treatment 1, after 8 h or 24 h post-end of dosing (at 24 h all animals other than 101)
  plasma concentration (below limit of quantitation): < 0.10 ng/mL
[1]; Treatment 1, oronasal inhalation
  absorption into the systemic circulation from the inhaled dose: rapid
[1]; Treatment 3, 15 minutes post-end of dose
  mean plasma concentration: 40.3 ± 14.5 ng/mL
[1]; Treatment 3, 6 h post-end of dose, animal 103
  plasma level: 11.1 ng/mL
[1]; Treatment 3, 24 h post-end of dose, animal 104
  plasma level: 0.192 ng/mL
[1]; Treatment 3, 72 hours post-end of dosing, animal 105
  plasma concentration (less than limit of quantitation): < 0.10 ng/mL
[1]; plasma, animal 101
  tmax: 0.5 h
  AUC0-inf: 72.0 ng·h/mL
  AUC0-tlast: 70.3 ng·h/mL
  Cmax: 26.3 ng/mL
  Extrapolation (AUC0-inf − AUC0-tlast)/AUC0-inf × 100: 2.36%
  kel: 0.121 h⁻¹
  t1/2: 5.74 h
  tlast: 24.25 h
[1]; plasma, animal 102
  tmax: 0.5 h
  AUC0-inf: 27.3 ng·h/mL
  AUC0-tlast: 27.1 ng·h/mL
  Cmax: 18.0 ng/mL
  Extrapolation (AUC0-inf − AUC0-tlast)/AUC0-inf × 100: 0.824%
  kel: 0.467 h⁻¹
  t1/2: 1.48 h
  tlast: 8.25 h
[1]; plasma, animal 103
  tmax: 0.42 h
  AUC0-inf: 46.8 ng·h/mL
  AUC0-tlast: 42.4 ng·h/mL
  Cmax: 24.0 ng/mL
  Extrapolation (AUC0-inf − AUC0-tlast)/AUC0-inf × 100: 9.40%
  kel: 0.252 h⁻¹
  t1/2: 2.75 h
  tlast: 8.17 h
[1]; plasma, animal 106
  tmax: 0.42 h
  AUC0-inf: 16.1 ng·h/mL
  AUC0-tlast: 15.8 ng·h/mL
  Cmax: 15.6 ng/mL
  Extrapolation (AUC0-inf − AUC0-tlast)/AUC0-inf × 100: 2.26%
  kel: 0.277 h⁻¹
  t1/2: 2.50 h
  tlast: 8.17 h
[1]; [5]
  mean AUC0-inf: 40.6 ± 24.5 ng·h/mL
  mean AUC0-tlast: 38.9 ± 23.6 ng·h/mL
  mean kel: 0.279 ± 0.143 h⁻¹
  mean t1/2: 3.12 ± 1.83 h
[2]
  distribution in lung, I5NP (hybridization) and REDD14Cy3.5 (fluorescence) compared: little difference in the distribution of the two test articles in lung
[3]; necropsy after inhalation doses
  macroscopic findings in organs and tissues: of no toxicological significance
[3]; single oronasal inhalation doses, target 35 mg/kg
  treatment-related clinical signs: No treatment-related clinical signs were observed
